The record followed here is PubChem BioAssay (NCI).

Among the test systems are HOP-62 NSCLC; MDA-MB-435; NCI-H460 lung; HT29 colon; RPMI-8226 leukemia; MALME-3M melanoma; RXF 393 renal; HL-60(TB) leukemia; MDA-MB-231 breast; HCT-116 colon; A498 renal; NCI-H226 lung; BT-549 breast; SK-OV-3 ovarian.
What all share (assay): DTP human tumour cell line panel, 48 h

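All cell lines were grown in 96-well plates and treated with compound for 48 hours. TGI is the concentration that stops growth completely.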

For the molecule `CC(C)(C)OC(=O)NC(Cc1ccc(OCc2ccccc2)cn1)C(N)=O` (stereo unspecified), the TGI in the experiment with HOP-62 NSCLC, in the experiment with MDA-MB-435, in the experiment with NCI-H460 lung, with HT29 colon, in the experiment on RPMI-8226 leukemia and with MALME-3M melanoma was greater than 100 µM throughout. Also, the TGI with RXF 393 renal, in the experiment on HL-60(TB) leukemia, in the experiment with MDA-MB-231 breast, with HCT-116 colon, in the experiment on A498 renal and with NCI-H226 lung was greater than 100 µM in each case. Besides, the TGI (commonly the concentration giving total growth inhibition) with BT-549 breast is greater than 100 µM.
Turning to `COc1cc(OC)c2nc(C)c3c(c2c1)OCC3`, the TGI in the experiment on HOP-62 NSCLC, with MDA-MB-435, in the experiment with NCI-H460 lung, in the experiment on HT29 colon, in the experiment with RPMI-8226 leukemia and with MALME-3M melanoma was greater than 100 µM throughout. In addition, the TGI with RXF 393 renal was 62.6 µM; in the experiment with HL-60(TB) leukemia, greater than 100 µM; in the experiment with MDA-MB-231 breast, 52.9 µM; in the experiment on HCT-116 colon it was greater than 100 µM; in the experiment on A498 renal, greater than 100 µM; with NCI-H226 lung, greater than 100 µM. The molecule also showed a TGI in the experiment on BT-549 breast greater than 100 µM.
For `O=C1OC(C2Cc3ccc4c(c3C2=O)CCCC4)c2ccccc21` (stereo unspecified), the TGI with HOP-62 NSCLC, with MDA-MB-435, with NCI-H460 lung, with HT29 colon, in the experiment on RPMI-8226 leukemia and in the experiment on MALME-3M melanoma was greater than 100 µM in each case. The concentration for total growth inhibition (TGI) is greater than 100 µM with HL-60(TB) leukemia; greater than 100 µM with MDA-MB-231 breast; greater than 100 µM with SK-OV-3 ovarian; greater than 100 µM in the experiment with HCT-116 colon; 53.6 µM in the experiment on A498 renal; 59.2 µM in the experiment with NCI-H226 lung. Also, the TGI in the experiment with BT-549 breast is greater than 100 µM.
Turning to `COC1=CC(=O)c2c(n[nH]c2CCNC(=O)OCc2ccccc2)C1=O`, the total growth inhibition concentration (TGI) was 37.2 µM in the experiment with HOP-62 NSCLC; 4 µM in the experiment on MDA-MB-435; 31.3 µM in the experiment on NCI-H460 lung; 40.8 µM in the experiment on HT29 colon; 39.1 µM in the experiment with RPMI-8226 leukemia; 6.5 µM in the experiment with MALME-3M melanoma. Besides, the TGI in the experiment on HL-60(TB) leukemia was 41.9 µM; in the experiment on MDA-MB-231 breast, 31.3 µM; in the experiment with HCT-116 colon, 24.9 µM; in the experiment with A498 renal, 32.7 µM; in the experiment with BT-549 breast, 32.5 µM.
Consider `CC(C)(C)OC(=O)NC(Cc1ccc(OCc2ccccc2)cn1)C(=O)O` (stereo unspecified), for which the TGI in the experiment on HOP-62 NSCLC, in the experiment on MDA-MB-435, with NCI-H460 lung, in the experiment with HT29 colon, with RPMI-8226 leukemia and in the experiment with MALME-3M melanoma was greater than 100 µM in each case. For the same molecule, the TGI with RXF 393 renal, with HL-60(TB) leukemia, in the experiment with MDA-MB-231 breast, with HCT-116 colon, in the experiment with A498 renal and with NCI-H226 lung was greater than 100 µM each time. Also, the TGI in the experiment on BT-549 breast is greater than 100 µM.
On to `CC1CN=C(NS(=O)(=O)c2cc(C(=O)Nc3ccccc3)c(Cl)cc2S)NN1` (stereo unspecified), for which the TGI is greater than 100 µM in the experiment on HOP-62 NSCLC; 52.5 µM in the experiment on MDA-MB-435; greater than 100 µM in the experiment on NCI-H460 lung; greater than 100 µM in the experiment with HT29 colon; greater than 100 µM in the experiment on RPMI-8226 leukemia; 77 µM in the experiment on MALME-3M melanoma. Also, the TGI was greater than 100 µM in the experiment on HL-60(TB) leukemia; greater than 100 µM with MDA-MB-231 breast; greater than 100 µM with SK-OV-3 ovarian; greater than 100 µM in the experiment on HCT-116 colon; 57.4 µM in the experiment on A498 renal; greater than 100 µM in the experiment on NCI-H226 lung. The molecule also displayed a TGI with BT-549 breast greater than 100 µM.
As for `COc1ccc(OC2OC(CO)C(O)C(O)C2O)cc1` (stereo unspecified), the TGI with HOP-62 NSCLC, with MDA-MB-435, with NCI-H460 lung, in the experiment with HT29 colon, in the experiment on RPMI-8226 leukemia and in the experiment on MALME-3M melanoma was greater than 100 µM throughout. In addition, the TGI with HL-60(TB) leukemia, in the experiment on MDA-MB-231 breast, with SK-OV-3 ovarian, in the experiment with HCT-116 colon, in the experiment on A498 renal and in the experiment with NCI-H226 lung was greater than 100 µM each time. In addition, the concentration for total growth inhibition (TGI) with BT-549 breast was greater than 100 µM.
As for `O=c1[nH]c2cc3[nH]c(=O)c(=O)[nH]c3cc2[nH]c1=O`, the TGI with MDA-MB-435, with NCI-H460 lung, in the experiment on HT29 colon, with RPMI-8226 leukemia, in the experiment with MALME-3M melanoma and in the experiment with RXF 393 renal was greater than 100 µM in each case. The TGI in the experiment with HL-60(TB) leukemia, in the experiment on MDA-MB-231 breast, in the experiment on SK-OV-3 ovarian, with HCT-116 colon, in the experiment on A498 renal and with NCI-H226 lung was greater than 100 µM each time. In addition, the TGI in the experiment with BT-549 breast was greater than 100 µM.
In the case of `CNC(=O)OCc1nc(N=[N+]=[N-])n(C)c1COC(=O)NC`, the TGI in the experiment on HOP-62 NSCLC, in the experiment on MDA-MB-435, in the experiment on NCI-H460 lung, in the experiment on HT29 colon, in the experiment on RPMI-8226 leukemia and in the experiment on MALME-3M melanoma was greater than 100 µM throughout. The TGI is 54.5 µM in the experiment on RXF 393 renal; 48.9 µM with HL-60(TB) leukemia; greater than 100 µM with MDA-MB-231 breast; greater than 100 µM with HCT-116 colon; greater than 100 µM in the experiment with A498 renal; greater than 100 µM with NCI-H226 lung. For the same molecule, the TGI in the experiment with BT-549 breast was greater than 10 µM.
For `CC(CC(C)[C@H]1CCC2[C@H]3C(CC(=O)[C@@]21C)[C@@]1(C)CCC(O)C[C@H]1C[C@@H]3O)C(=O)O` (stereo partly specified), the TGI in the experiment on HOP-62 NSCLC, in the experiment with MDA-MB-435, in the experiment on NCI-H460 lung, in the experiment with HT29 colon, in the experiment with RPMI-8226 leukemia and in the experiment on MALME-3M melanoma was greater than 100 µM in each case. Moreover, the TGI with RXF 393 renal, in the experiment with HL-60(TB) leukemia, in the experiment with MDA-MB-231 breast, in the experiment with HCT-116 colon, with A498 renal and in the experiment on NCI-H226 lung was greater than 100 µM in each case. In the experiment with BT-549 breast, this molecule gave a TGI greater than 100 µM.
Consider `O=C1Nc2ccccc2/C1=N/N1C(=O)/C(=C/c2ccccc2S)N=C1c1ccccc1`, for which the TGI in the experiment on HOP-62 NSCLC, in the experiment on MDA-MB-435, with NCI-H460 lung, with HT29 colon, in the experiment on RPMI-8226 leukemia and in the experiment with MALME-3M melanoma was greater than 100 µM each time. Moreover, the TGI in the experiment on RXF 393 renal, in the experiment on HL-60(TB) leukemia, in the experiment with MDA-MB-231 breast, in the experiment with SK-OV-3 ovarian, in the experiment on HCT-116 colon and in the experiment on A498 renal was greater than 100 µM throughout. Moreover, the TGI in the experiment with BT-549 breast was greater than 100 µM.
